Assay results taken from the NIST ThermoML archive (doi:10.1007/s10765-009-0566-6).
Numbers after ± are expanded uncertainties.

Test: refractive index (Na D-line) (dimensionless); mn = molality of the nth substance listed, in mol/kg
Conditions: 101 kPa, Liquid, Standard Abbe refractometry

CCCCCn1cc[n+](C)c1.[Cl-] [1-methyl-3-pentylimidazolium chloride] + O
refractive index
Conditions | 298.15 K | 308.15 K | 318.15 K | 328.15 K
m1 = 0.014 | 1.3331 ± 0.0011 | 1.3318 ± 0.0011 | 1.3302 ± 0.0011 | 1.3282 ± 0.0011
m1 = 0.0263 | 1.3334 ± 0.0011 | 1.3321 ± 0.0011 | 1.3305 ± 0.0011 | 1.3284 ± 0.0011
m1 = 0.0391 | 1.3338 ± 0.0011 | 1.3324 ± 0.0011 | 1.3308 ± 0.0011 | 1.3288 ± 0.0011
m1 = 0.0518 | 1.3342 ± 0.0011 | 1.3328 ± 0.0011 | 1.3313 ± 0.0011 | 1.3291 ± 0.0011
m1 = 0.0634 | 1.3344 ± 0.0011 | 1.3331 ± 0.0011 | 1.3316 ± 0.0011 | 1.3294 ± 0.0011
m1 = 0.084 | 1.3351 ± 0.0011 | 1.3339 ± 0.0011 | 1.3322 ± 0.0011 | 1.3305 ± 0.0011
m1 = 0.1007 | 1.3358 ± 0.0011 | 1.3344 ± 0.0011 | 1.3327 ± 0.0011 | 1.3309 ± 0.0011
m1 = 0.1369 | 1.3367 ± 0.0011 | 1.3357 ± 0.0011 | 1.3336 ± 0.0011 | 1.3316 ± 0.0011
m1 = 0.1784 | 1.3379 ± 0.001 | 1.3367 ± 0.0011 | 1.3349 ± 0.0011 | 1.3328 ± 0.0011
m1 = 0.2198 | 1.3392 ± 0.001 | 1.3378 ± 0.0011 | 1.3359 ± 0.0011 | 1.3339 ± 0.0011
m1 = 0.2765 | 1.3408 ± 0.001 | 1.3397 ± 0.001 | 1.3377 ± 0.0011 | 1.3356 ± 0.0011
m1 = 0.3517 | 1.343 ± 0.001 | 1.3416 ± 0.001 | 1.3397 ± 0.001 | 1.3376 ± 0.001
m1 = 0.4043 | 1.3443 ± 0.001 | 1.343 ± 0.001 | 1.3411 ± 0.001 | 1.3389 ± 0.001
m1 = 0.5014 | 1.347 ± 0.001 | 1.3457 ± 0.001 | 1.3437 ± 0.001 | 1.3419 ± 0.001
m1 = 0.5758 | 1.3489 ± 0.001 | 1.3475 ± 0.001 | 1.3457 ± 0.001 | 1.344 ± 0.001
m1 = 0.8464 | 1.3558 ± 0.001 | 1.3547 ± 0.001 | 1.3523 ± 0.001 | 1.3505 ± 0.001
m1 = 1.002 | 1.3596 ± 0.001 | 1.3579 ± 0.001 | 1.3557 ± 0.001 | 1.3537 ± 0.001
m1 = 1.376 | 1.3679 ± 0.001 | 1.3658 ± 0.001 | 1.3639 ± 0.001 | 1.3619 ± 0.001
m1 = 1.797 | 1.3764 ± 0.0009 | 1.3745 ± 0.0009 | 1.3721 ± 0.0009 | 1.3697 ± 0.0009
